Experimental data: patent US20080293931A1, “Methods and compositions for the removal of nucleic acid amplification inhibitors” (priority 2006, published 2008)
“Also recorded” adds a separate entry of the source. Like-named read-outs stand apart in the source and are kept apart here.

Assays:
[1] = Humic acid (HA) removal from aqueous commercial HA solutions by PIR compounds, fluorimetric HA determination; design: key to ε values: ε = −log(1 − efficiency); efficiency = ([HA]i − [HA]f)/[HA]i; settings: for performance as PIR compound (in words): commercial humic acid solutions; for Average Efficiency, ε / Avg Reduction Factor: aqueous humic samples seeded with E. coli DNA
Method: Humic solutions were in 1×TAE buffer at RT with pH˜7. […] Samples from PIR experiments utilizing these materials were diluted, using 1×TAE, to concentrations falling within the linear response region representative of the humic material used.
In this study, when samples were interrogated for humic acid concentrations via fluorimetry, known concentrations of commercial humic acids were compared to known concentrations of humic standards.
FIG. 1 compares the HA removal from samples containing DNA of interest to the molar concentration of varied PIR compounds by plotting an HA reduction factor as the initial [HA] divided by [HA] following treatment with PIR compounds. The commercially available PIR kit, from Mo-BIO, is placed on FIG. 1 for comparison and was arbitrarily assigned a molar concentration of 1 for convenience. […] The data shown in FIG. 1 were generated from varied initial [HA], ranging from ˜5,000 to 300,000 mg/L HA. These varied initial [HA] values represent a “worst case” scenario and these are in comparison to initial [HA] in extractions from problematic soils generating humic acid concentrations typically less than 5,000 mg/L.
FIG. 2 plots the data from the same experiments represented in FIG. 1, but applying a different approach for data metric. FIG. 2 plots a dimensionless HA removal efficiency (or efficacy) value versus the decade of dilution necessary for successful PCR. The efficiency of HA removal is defined in equation 1 as the initial [HA] minus the final [HA] divided by the initial [HA]. This is essentially a percent removal approach.
Efficiency=[HA]i−[HA]f/[HA]; (1)
To further discriminate efficiency values greater than 0.99, the efficiency was subtracted from the integer value of 1, and the −log was taken of 1-efficiency to generate a non-negative value indicative of HA removal efficiency with greater level of discrimination and resolution of values with high degrees of HA removal. This is described by equation 2.

[2] = tested on: E. coli DNA; experiment: PCR of seeded E. coli DNA after PIR treatment of aqueous HA samples (decade of dilution necessary for successful PCR); settings: for Typical dilution decade for PCR / range of dilutions (dilution decade for PCR): aqueous humic samples seeded with E. coli DNA
Method: Consideration of dilution factors for successful PCR must also be reviewed. In untreated soil extracts containing DNA of interest, successful PCR of the extracted DNA may occur when the polymerase inhibitor is diluted sufficiently such that inhibition is suppressed and PCR may occur. Typical values for the dilution decade at which PCR is successful in samples containing humic materials and DNA of interest are often around decade four (1×10^4). Accordingly, a dilution factor of 10,000 would be necessary for successful PCR in a typical soil extract/sample. This magnitude of dilution may also impact PCR sensitivity for DNA/species already present at low concentrations and result in not identifying an organism that was present in the original sample extract.
Using this approach for presenting the HA removal data allows for the determination of a PIR compound's effectiveness for HA removal (ε) and compatibility for application in PCR systems via dilution data for PCR.

[3] = Solubility of PIR compounds in aqueous solution; assay type: physicochemical; settings: for solubility: aqueous solution
[4] = 0.1M DTPB in phosphate buffer, 30 days storage, 4 C., dark, HA avg 50,300 mg/L
[5] = 0.1M DTPB in phosphate buffer, 30 days storage, 25 C., dark, HA avg 50,300 mg/L
[6] = 0.1M DTPB in phosphate buffer, 30 days storage, 25 C., light, HA avg 50,300 mg/L
[7] = 0.1M DTPB in phosphate buffer, 30 days storage, −20 C., dark, HA avg 50,300 mg/L
[8] = 1.0M DTPB in phosphate buffer, 30 days storage, 4 C., dark, HA avg 50,300 mg/L
[9] = 1.0M DTPB in phosphate buffer, 30 days storage, 25 C., dark, HA avg 50,300 mg/L
[10] = 1.0M DTPB in phosphate buffer, 30 days storage, 25 C., light, HA avg 50,300 mg/L
[11] = 1.0M DTPB in phosphate buffer, 30 days storage, −20 C., dark, HA avg 50,300 mg/L
[12] = 2M DTPB in phosphate buffer, 30 days storage, 4 C., dark, HA avg 50,300 mg/L
[13] = 2M DTPB in phosphate buffer, 30 days storage, 25 C., dark, HA avg 50,300 mg/L
[14] = 2M DTPB in phosphate buffer, 30 days storage, 25 C., light, HA avg 50,300 mg/L
[15] = 2M DTPB in phosphate buffer, 30 days storage, −20 C., dark, HA avg 50,300 mg/L
[16] = PIR 1 M, HAi avg 6,500-12,300 depending on compound (Table 6 c2)
[17] = aqueous solutions, read-out: solubility in aqueous solutions (molar solubility)
[18] = starred values of column PIR, M (footnote of Table 6), read-out: maximum molar solubility
[19] = 1M BRT in phosphate buffer, 19 days storage, 4 C., dark, HA avg 10,200 mg/L
[20] = 1M BRT in phosphate buffer, 19 days storage, 25 C., dark, HA avg 10,200 mg/L
[21] = 1M BRT in phosphate buffer, 19 days storage, 25 C., light, HA avg 10,200 mg/L
[22] = 1M BRT in phosphate buffer, 19 days storage, −20 C., dark, HA avg 10,200 mg/L
[23] = 4.0 M AMG in phosphate buffer, 30 days storage, 4 C., dark, HA avg ~10,000 mg/L
[24] = 4.0 M AMG in phosphate buffer, 30 days storage, 25 C., dark, HA avg ~10,000 mg/L
[25] = 4.0 M AMG in phosphate buffer, 30 days storage, 25 C., light, HA avg ~10,000 mg/L
[26] = 4.0 M AMG in phosphate buffer, 30 days storage, −20 C., dark, HA avg ~10,000 mg/L
[27] = 5.5 M AMG in phosphate buffer, 30 days storage, 4 C., dark, HA avg ~10,000 mg/L
[28] = 5.5 M AMG in phosphate buffer, 30 days storage, 25 C., dark, HA avg ~10,000 mg/L
[29] = 5.5 M AMG in phosphate buffer, 30 days storage, 25 C., light, HA avg ~10,000 mg/L
[30] = 5.5 M AMG in phosphate buffer, 30 days storage, −20 C., dark, HA avg ~10,000 mg/L

Nc1ccc(C(=O)C[n+]2ccsc2)cc1.[Br-] [PTB-A, 4-Amine-Phenacyl Thiazolium Bromide]
performance as PIR compound (in words) [1]: did not perform well; also recorded: poor performance

O=C(C[n+]1ccsc1)C[n+]1ccsc1 [DTPB, 1,3-Dithiazole-2-Propanone Dibromide]
Decade of dilution [2, 4]: 2 | Decade of dilution [2, 5]: 2 | Decade of dilution [2, 6]: 2 | Decade of dilution [2, 7]: 2 | Decade of dilution [2, 8]: 1 | Decade of dilution [2, 9]: 1 | Decade of dilution [2, 10]: 1 | Decade of dilution [2, 11]: 1 | Decade of dilution [2, 12]: 1 | Decade of dilution [2, 13]: 1 | Decade of dilution [2, 14]: 1 | Decade of dilution [2, 15]: 1 | Typical dilution decade for PCR [2, 16]: 2 | range of dilutions (dilution decade for PCR) [2, 16]: 1-2 | HA reduction factor [1, 4]: 5 | ε values [1, 4]: 0.70 | HA reduction factor [1, 5]: 6 | ε values [1, 5]: 0.76 | HA reduction factor [1, 6]: 6 | ε values [1, 6]: 0.75 | HA reduction factor [1, 7]: 7 | ε values [1, 7]: 0.87 | HA reduction factor [1, 8]: 143 | ε values [1, 8]: 2.16 | HA reduction factor [1, 9]: 160 | ε values [1, 9]: 2.20 | HA reduction factor [1, 10]: 194 | ε values [1, 10]: 2.29 | HA reduction factor [1, 11]: 114 | ε values [1, 11]: 2.06 | HA reduction factor [1, 12]: 64 | ε values [1, 12]: 1.81 | HA reduction factor [1, 13]: 99 | ε values [1, 13]: 1.99 | HA reduction factor [1, 14]: 107 | ε values [1, 14]: 2.03 | HA reduction factor [1, 15]: 50 | ε values [1, 15]: 1.70 | Average Efficiency, ε [1, 16]: 2.18 | Avg Reduction Factor [1, 16]: 153 | performance as PIR compound (in words) [1]: poor performance

CC(=O)C[n+]1ccsc1
performance as PIR compound (in words) [1]: did not perform well

Cc1ncc(C[n+]2csc(CCO[P@](=O)(O)OP(=O)(O)O)c2C)c(N)n1 [THI-PP, thiamine pyrophosphate]
solubility [3, 17]: 300 mM | solubility [3, 18]: 300 mM | solubility in aqueous solutions (molar solubility) ([3]; aqueous solutions): ~300 mM | Typical dilution decade for PCR ([2]; PIR 0.3 M, HAi avg 14,000): 0 | range of dilutions (dilution decade for PCR) ([2]; PIR 0.3 M, HAi avg 14,000): 0-3 | Average Efficiency, ε ([1]; PIR 0.3 M, HAi avg 14,000): 2.57 | Avg Reduction Factor ([1]; PIR 0.3 M, HAi avg 14,000): 384 | performance as PIR compound (in words) [1]: did not perform well; also recorded: poor performance

Bromothiazole [BRT]
Decade of dilution [2, 19]: 0 | Decade of dilution [2, 20]: 0 | Decade of dilution [2, 21]: 0 | Decade of dilution [2, 22]: 0 | Typical dilution decade for PCR [2, 16]: 0 | range of dilutions (dilution decade for PCR) [2, 16]: 0-3 | PCR products imaged after gel electrophoresis (band intensity) ([2]; aqueous HA samples seeded with E. coli DNA): weak | ε values [1, 19]: 1.99 | ε values [1, 20]: 2.45 | ε values [1, 21]: 2.18 | ε values [1, 22]: 1.36 | increase of PIR ability (HA reduction factor) on day 19 versus day zero ([1]; 1M BRT stored at room temperature, ambient lighting): ~3 factor | increase of PIR ability (HA reduction factor) on day 19 ([1]; 1M BRT stored at room temperature, kept in the dark): greater than 2 factor | Average Efficiency, ε [1, 16]: 2.21 | Avg Reduction Factor [1, 16]: 199

N=C(N)NN [AMG, Aminoguanidine, reference compound]
Decade of dilution [2, 23]: 2 | Decade of dilution [2, 24]: 2 | Decade of dilution [2, 25]: 2 | Decade of dilution [2, 26]: 2 | Decade of dilution [2, 27]: 2 | Decade of dilution [2, 28]: 2 | Decade of dilution [2, 29]: 2 | Decade of dilution [2, 30]: 2 | Typical dilution decade for PCR ([2]; PIR 4 M, HAi avg 35,000): 4 | range of dilutions (dilution decade for PCR) ([2]; PIR 4 M, HAi avg 35,000): 3-4 | dilution required for successful PCR products ([2]; both 4.0 and 5.5 M AMG): 2 orders of magnitude | HA reduction factor [1, 23]: 7 | ε values [1, 23]: 0.83 | HA reduction factor [1, 24]: 6 | ε values [1, 24]: 0.81 | HA reduction factor [1, 25]: 6 | ε values [1, 25]: 0.80 | HA reduction factor [1, 26]: 4 | ε values [1, 26]: 0.65 | ε values ([1]; 4.0M AMG, 30 days storage): less than 1 | HA reduction factor [1, 27]: 14 | ε values [1, 27]: 1.15 | HA reduction factor [1, 28]: 15 | ε values [1, 28]: 1.16 | HA reduction factor [1, 29]: 19 | ε values [1, 29]: 1.13 | HA reduction factor [1, 30]: 19 | ε values [1, 30]: 1.28 | ε values ([1]; 5.5 M AMG, 30 days storage): less than 1.3 | Typical HA reduction factors ([1]; AMG 4.0 and 5.5 M, 30 days storage, HA ~10,000 mg/L): less than 20 | Average Efficiency, ε ([1]; PIR 4 M, HAi avg 35,000): 0.77 | Avg Reduction Factor ([1]; PIR 4 M, HAi avg 35,000): 6 | performance as PIR compound (in words) [1]: poor performance

1-thiazole-2-propanone bromide [BAT]
Typical dilution decade for PCR [2, 16]: 4 | range of dilutions (dilution decade for PCR) [2, 16]: 3-4 | Average Efficiency, ε [1, 16]: 0.51 | Avg Reduction Factor [1, 16]: 3 | performance as PIR compound (in words) [1]: poor performance

O=C(C[n+]1ccsc1)c1ccccc1 [PTB, Phenacyl Thiazolium Bromide, reference compound]
solubility [3, 17]: < 1000 mM | solubility [3, 18]: 1000 mM
